Measurements as given in patent US20240082228A1, “SARS-COV-2 THERAPEUTICS” (priority 2021, published 2024).
Values joined by “and” are separate entries in the source; they are usually repeats but may differ in a detail not shown here. Equal entries are not always repeated. Where two headings read alike, the source gives them in different places.

Experiments:
[1] = for Average Cell Number (1 uM) / Cell Number (1 uM) / Normalized Cell Number (1 uM): compound at 1 uM; for Average Cell Number (1 uM) / Average Cell Number (5 uM): average of normalized cell number, n=3, relative to DMSO; for Cell Number (1 uM) / Normalized Cell Number (1 uM) / Cell Number (5 uM) / Normalized Cell Number (5 uM): single replicate; for Cell Number (1 uM) / Cell Number (5 uM): raw cell count; for Normalized Cell Number (1 uM) / Normalized Cell Number (5 uM): relative to negative control DMSO; for Average Cell Number (5 uM) / Cell Number (5 uM) / Normalized Cell Number (5 uM): compound at 5 uM
SARS-CoV-2 = test: microbe, parasite or virus in culture; type: cell-based; details: for activity at 1 µM: Severe acute respiratory syndrome coronavirus 2, 1 uM, read-out: Normalized Infection (1 uM); for activity at 1 µM / activity at 5 µM / Normalized Infection (1 uM) / log2FC Infection (1 uM) / Normalized Infection (5 uM) / log2FC Infection (5 uM): single replicate, relative to negative control DMSO; for activity at 5 µM: Severe acute respiratory syndrome coronavirus 2, 5 uM, read-out: Normalized Infection (5 uM); for % Infection (1 uM) / % Infection (5 uM): single replicate of triplicate
[2] = 1 uM, average log2FC infection (n=3) relative to DMSO
[3] = 5 uM, average log2FC infection (n=3) relative to DMSO

Compound | Toxic (1 uM) [1] | Average Cell Number (1 uM) [1] | Cell Number (1 uM) [1] | Normalized Cell Number (1 uM) [1] | Average Cell Number (5 uM) [1] | HIT (2 Std, 1 uM) (SARS-CoV-2; 1 uM) | Average Infection (1 uM) (SARS-CoV-2; [2]) | HIT (2 Stdv, 5 uM) (SARS-CoV-2; 5 uM) | Average Infection (5 uM) (SARS-CoV-2; [3]) | activity at 1 µM (SARS-CoV-2) [%] | HIT (SARS-CoV-2; overall, 1 or 5 uM) | Toxic (5 uM) [1] | Cell Number (5 uM) [1] | Normalized Cell Number (5 uM) [1] | Average Infection (1 uM) (SARS-CoV-2) | Average Infection (5 uM) (SARS-CoV-2) | also measured
C#C[C@]1(O)CC[C@H]2[C@@H]3CCC4=CC(=O)CC[C@@H]4[C@H]3C(=C)C[C@@]21CC [Etonogestrel, etonogestrel] | 0 (non-toxic (Normalized Cell number>0.65) | 0.734 | 4255 and 4398 and 4251 | 0.7261 and 0.7505 and 0.7254 | 0.5829 | HIT | −0.4065 | HIT | −1.187 | 72 | Yes |  |  |  |  |  | 
CC(C)(C)c1cc(C(C)(C)C)c(NC(=O)c2c[nH]c3ccccc3c2=O)cc1O [Ivacaftor, ivacaftor] |  | 0.6354 | 3730 and 3662 and 3779 | 0.6365 and 0.6249 and 0.6449 | 0.735 | HIT |  | HIT |  | 59.8 | Yes | 0 (non-toxic (Normalized Cell number>0.65) | 4520 and 4563 and 3984 | 0.7627 and 0.77 and 0.6723 | −0.9235 | −0.9409 | activity at 5 µM (SARS-CoV-2): 60.9%
FC(F)(F)c1cccc(C2=CCN(CCc3ccc4ccccc4c3)CC2)c1 [Xaliproden, xaliproden] | 0 (non-toxic (Normalized Cell number>0.65) | 0.7188 | 4440 and 4549 and 3647 | 0.7577 and 0.7763 and 0.6224 | 0.9135 | HIT | −0.6769 |  | −0.143 |  | Yes | 0 (non-toxic (Normalized Cell number>0.65) | 5577 and 5737 and 4927 | 0.9411 and 0.9681 and 0.8314 |  |  | 
Cc1ccccc1-n1c(Cn2nc(-c3cccc(O)c3)c3c(N)ncnc32)nc2cccc(C)c2c1=O [PIK-294, pik-294] | 0 (non-toxic (Normalized Cell number>0.65) | 0.7115 | 4346 and 3954 and 4208 | 0.7416 and 0.6747 and 0.7181 | 0.9038 |  |  |  |  |  |  | 0 (non-toxic (Normalized Cell number>0.65) | 5244 and 5589 and 5236 | 0.8849 and 0.9431 and 0.8835 |  |  | 
CS(=O)(=O)N1CCN(Cc2cc3nc(-c4cccc5[nH]ncc45)nc(N4CCOCC4)c3s2)CC1 [GDC-0941, pictilisib] | 0 (non-toxic (Normalized Cell number>0.65) | 0.7899 | 4447 and 4698 and 4741 | 0.7589 and 0.8017 and 0.809 | 0.8826 | HIT | −2.374 | HIT | −2.82 | 14.6 | Yes | 0 (non-toxic (Normalized Cell number>0.65) | 5415 and 4385 and 5891 | 0.9137 and 0.7399 and 0.9941 |  |  | 
cefonicid | 0 (non-toxic (Normalized Cell number>0.65) | 0.9122 | 5339 and 5337 and 5361 | 0.9111 and 0.9108 and 0.9148 | 0.9876 | HIT |  |  |  |  | Yes | 0 (non-toxic (Normalized Cell number>0.65) | 5781 (2×) and 5996 | 0.9755 (2×) and 1.012 | −0.4929 | 0.04523 | % Infection (1 uM) (SARS-CoV-2; 1 uM): 19.07% and 19.19% and 17.78%; Normalized Infection (1 uM) (SARS-CoV-2; 1 uM): 0.7259 and 0.7305 and 0.6768; log2FC Infection (1 uM) (SARS-CoV-2; 1 uM): −0.4622 and −0.4531 and −0.5633; % Infection (5 uM) (SARS-CoV-2; 5 uM): 16.97% and 13.67% and 17.29%; Normalized Infection (5 uM) (SARS-CoV-2; 5 uM): 1.102 and 0.8875 and 1.123; log2FC Infection (5 uM) (SARS-CoV-2; 5 uM): 0.1402 and −0.1722 and 0.1676
CC1(N)CCN(c2cccnc2NC(=O)c2nc(-c3ncccc3C(F)(F)F)cnc2N)CC1 [LXS-196, lxs196] | 0 (non-toxic (Normalized Cell number>0.65) | 0.9125 | 5737 and 5507 and 4798 | 0.979 and 0.9398 and 0.8188 | 0.5379 | HIT | −2.123 | HIT | −6.497 | 31 | Yes |  |  |  |  |  | 
CCOC(=O)N1CCC(=C2c3ccc(Cl)cc3CCc3cccnc32)CC1 [Loratadine, loratadine] |  |  |  |  |  |  | −0.3263 |  | −1.089 | 81.8 |  |  |  |  |  |  | HIT (SARS-CoV-2): Yes; HIT (2 Stdv, 5 uM) (SARS-CoV-2): HIT; activity at 5 µM (SARS-CoV-2): 54%
O=C(c1ccc(F)cc1)N1CCC[C@H](c2nc(-c3ccc(F)cc3)no2)C1 [ADX-47273, adx-47273] |  |  |  |  |  | HIT |  |  |  |  | Yes |  |  |  | −0.4315 | −0.3579 | % Infection (1 uM) (SARS-CoV-2; 1 uM): 21.77% and 18.58% and 18.27%; Normalized Infection (1 uM) (SARS-CoV-2; 1 uM): 0.8288 and 0.7074 and 0.6954; log2FC Infection (1 uM) (SARS-CoV-2; 1 uM): −0.271 and −0.4995 and −0.524; % Infection (5 uM) (SARS-CoV-2; 5 uM): 14.06% and 10.49% and 11.77%; Normalized Infection (5 uM) (SARS-CoV-2; 5 uM): 0.9128 and 0.681 and 0.7644; log2FC Infection (5 uM) (SARS-CoV-2; 5 uM): −0.1316 and −0.5544 and −0.3876
